Marks after values point to notes of the source that are not given here.
What was measured:
[1] = system: LPS-treated mice; test: Striatal dopamine and metabolites in LPS-treated mice; assay type: in vivo; conditions: for Concentration DA in the striatum: 3 weeks after LPS
Description: Control animals received striatal injection with PBS.
Mice were sacrificed at 3 weeks after LPS treatment.

[2] = system: MPTP-treated mice; test: Hypokinesia (reduction in locomotor activity) induced by MPTP; assay type: in vivo; conditions: 12 or 24 mg/kg i.p. 30 min before MPTP (20 mg/kg/day x 7), last three days
[3] = system: MA-treated mice; test: MA-induced behavioural sensitization; conditions: morphinan 20 mg/kg i.p., last 3 days of wash-out (Ex. 3.12)
Description: Morphinans (20 mg/kg, i.p.) were administered last 3 days of wash-out period.

[4] = system: kainate or maximal electric shock; conditions: kainate (24) or maximal electric shock (27); cited from earlier work
[5] = system: MA-treated mice; test: MA-induced FRA-IR in the striatum; conditions: morphinan 20 mg/kg i.p.; MA 1 mg/kg i.p./day x 7
Description: Therefore, brains were removed and used for immunocytochemical analysis at 18 h after the final cocaine/MA treatment. The coronal sections containing striatum were processed for FRA immunocytochemistry. […] The FRA antibody was used at 1:2,000 as the optimal dilution. The FRA-IR in the striatum was calculated using image analysis systems with a polaroid digital microscopic camera (Optimas version 6.2).

[6] = system: MPTP-treated mice; test: Striatal dopamine and metabolites (HPLC-EC) in MPTP-treated mice; conditions: for Concentration DA in the striatum: mean ± S.E.M., 8 animals
[7] = system: MA-treated mice; test: Nigral TH-IR in MA-treated mice; conditions: 24 mg/kg i.p.
[8] = system: C57 BL/6 mice; test: Locomotor activity and locomotor pattern following repeated administration of morphinans or PCP; assay type: in vivo
[9] = system: MA-treated mice; test: MA-induced hyperlocomotion; assay type: in vivo; conditions: morphinan 20 mg/kg i.p. 30 min before MA 1 mg/kg i.p./day x 7
Description: FIGS. 39A-39D show effect of morphinans on the MA-induced hyperactivity in the mice. Each morphinan (20 mg/kg, i.p.) was administered 30 minutes prior to MA (1 mg/kg, i.p.). All treatments were performed for 7 days.

[10] = system: cocaine-treated mice; test: Cocaine-induced hyperlocomotion; assay type: in vivo
Description: FIGS. 34A-34B show effect of morphinans on the cocaine-induced hyperactivity in the mice. Morphinans (15 and 30 mg/kg, i.p.) were administered 30 minutes prior to cocaine (5 and 20 mg/kg, i.p.). Central activity means relatively non-specific locomotor activity in the center of the box. Marginal activity means circling behaviors. All treatments were performed for 7 days.
FIGS. 35A-35D show effect of dimemorfan (DF) on cocaine-induced hyperactivity in the mice. DF (20 mg/kg, i.p.) was administered 30 minutes prior to cocaine (5 and 20 mg/kg, i.p.). All treatments were performed for 7 days.

[11] = system: MA-treated mice; test: Striatal dopamine and metabolites in MA-treated mice; assay type: in vivo; conditions: for Concentration DA in the striatum: 3 days after final MA
Description: Mice were sacrificed at 3 days after final MA injection.

[12] = system: MA-treated mice; test: Hypokinesia induced by MA; assay type: in vivo; conditions: 12 and 24 mg/kg; 3 days after final MA
[13] = system: C57 BL/6 mice; test: Conditioned place preference (psychological dependence) following repeated administration of morphinans or PCP; assay type: in vivo; conditions: 20 or 40 mg/kg i.p. (PCP 2.5 or 5 mg/kg); vs saline
Description: On day 14, the guillotine doors were raised. […] Data were analyzed between 0900 and 1700 hr.

[14] = system: cocaine-treated mice; test: Cocaine-induced Fos-related antigen-immunoreactivity (FRA-IR) in the striatum; conditions: cocaine 5 mg/kg; morphinan 20 mg/kg i.p.
[15] = system: MA-treated mice; test: Methamphetamine (MA)-induced hyperthermia; assay type: in vivo; conditions: 24 mg/kg; MA 7.5 mg/kg i.p. x 4 at 2-h intervals
Description: Rectal temperature was recorded at 40 min after each MA treatment. […] Mice were sacrificed at 3 days after final MA injection.
FIGS. 10A-10B show effect of morphinans on the methamphetamine (MA)-induced hyperthermia. Mice received i.p. injections of MA (four injections of 7.5 mg/kg each) at 2-h intervals under the ambient temperature of 22.0±0.5° C. Temperatures were recorded at 40 min after each MA treatment (Arrow=MA injection).

[16] = system: NMDA receptor associated PCP sites; conditions: cited from earlier work
[17] = molecular target: σ1 receptors (Homo sapiens, UniProt Q99720); conditions: cited from earlier work
[18] = system: LPS-treated mice; test: Hypokinesia induced by intrastriatal LPS; conditions: 12 or 24 mg/kg, twice before bilateral intrastriatal LPS
Description: Male mice were anesthetized with chloral hydrate (200 mg/kg, i.p.) and positioned in a small-animal stereotaxic apparatus. […] LPS (2 μg in a volume of 2 μl of PBS) was injected into both sides of the striatum over a period of 2 min, and the injection needle was kept in place for 2 min after the injection. Control animals received striatal injection with PBS.
Ten min after the last treatment with each drug, locomotor activity was measured for 30 min. After measuring the locomotor activity (i.e. 40 min after the last drug injection), the ‘absolute turn angular’ was analyzed in a 3-min monitoring period using an automated video-tracking system (Noldus Information Technology, Wagenin, The Netherlands) to examine locomotor patterns. […] Eight test boxes (40×40×30 cm high) were operated simultaneously by an IBM computer. Animals were studied individually during locomotion in each test box, where they were adapted for 10 min before starting the experiment. […] The distance traveled in cm by the animals in horizontal locomotor activity was analyzed (13, 25, 27). Data were collected and analyzed between 0900 and 1700 hr.

Chain of σ1 receptors (Q99720 whole entry): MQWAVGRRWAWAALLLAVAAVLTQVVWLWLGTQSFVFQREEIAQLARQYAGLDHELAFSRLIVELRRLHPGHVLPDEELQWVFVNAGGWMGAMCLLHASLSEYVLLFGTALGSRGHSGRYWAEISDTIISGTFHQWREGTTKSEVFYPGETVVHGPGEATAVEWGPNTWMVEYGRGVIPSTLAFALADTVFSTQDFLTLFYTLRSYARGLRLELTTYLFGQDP

Cc1ccc2c(c1)[C@@]13CCCC[C@H]1[C@@H](C2)N(C)CC3 [DF, 3-methyl-17-methyl-morphinan]
effect on LPS-induced reductions in striatal DA, DOPAC and HVA ([1]; 24 mg/kg pretreatment): did not alter LPS-induced reductions in DA, DOPAC and HVA levels
Concentration DOPAC in the striatum ([1]; morphinan 12 (mg/kg) + LPS): 54 ± 7 ng/100 mg wet tissue
Concentration HVA in the striatum ([1]; morphinan 12 (mg/kg) + LPS): 62 ± 8 ng/100 mg wet tissue
Concentration DA in the striatum ([1]; morphinan 12 (mg/kg) + LPS, mean ± S.E.M., 8 animals): 635 ± 65 ng/100 mg wet tissue
Concentration DOPAC in the striatum ([1]; morphinan 24 (mg/kg) + LPS): 59 ± 8 ng/100 mg wet tissue
Concentration HVA in the striatum ([1]; morphinan 24 (mg/kg) + LPS): 63 ± 7 ng/100 mg wet tissue
Concentration DA in the striatum ([1]; morphinan 24 (mg/kg) + LPS): 459 ± 58 ng/100 mg wet tissue
effect on MPTP-induced reduction in locomotor activity [2]: neither AM nor DF affected significantly the locomotor hypoactivity
effect on MA-induced behavioural sensitization [3]: significantly reduced
anticonvulsant effect [4]: exhibited anticonvulsant effects
effect on MA-induced FRA-IR in the striatum [5]: apparently attenuated
effect on MPTP-induced reductions in striatal DA, DOPAC and HVA ([6]; 24 mg/kg pretreatment): did not alter reductions in DA, DOPAC and HVA
Concentration DOPAC in the striatum ([6]; morphinan 12 (mg/kg) + MPTP): 44 ± 6 ng/100 mg wet tissue
Concentration HVA in the striatum ([6]; morphinan 12 (mg/kg) + MPTP): 62 ± 7 ng/100 mg wet tissue
Concentration DA in the striatum ([6]; morphinan 12 (mg/kg) + MPTP): 403 ± 55 ng/100 mg wet tissue
Concentration DOPAC in the striatum ([6]; morphinan 24 (mg/kg) + MPTP): 52 ± 7 ng/100 mg wet tissue
Concentration HVA in the striatum ([6]; morphinan 24 (mg/kg) + MPTP): 68 ± 6 ng/100 mg wet tissue
Concentration DA in the striatum ([6]; morphinan 24 (mg/kg) + MPTP): 397 ± 55 ng/100 mg wet tissue
effect on MA-induced decrease in nigral TH-positive cells [7]: significantly attenuated the decrease in TH-positive cells
locomotor pattern (tracings) ([8]; 40 mg/kg i.p. (PCP 5 mg/kg), FIG. 3): did not produce significant marginal activity
marginal activity (circling behaviour; absolute turn angular) ([8]; 20 or 40 mg/kg i.p./day x 7 (PCP 2.5 or 5 mg/kg), 3-min period, vs saline): did not significantly affect marginal activity
locomotor activity (total distance moved) ([8]; 20 or 40 mg/kg i.p./day x 7 days, 30 min after final treatment, vs saline): comparable to that with saline
effect on MA-induced hyperlocomotion [9]: consistently effective in attenuating hyperlocomotion induced by MA
effect on locomotor activity induced by low dose of cocaine ([10]; cocaine 5 mg/kg i.p. x 7 days, morphinan 15 or 30 mg/kg (DF 20 mg/kg) i.p.): consistently attenuated locomotor activity induced by a low dose of cocaine
effect on hyperactivity induced by high dose of cocaine ([10]; cocaine 20 mg/kg i.p. x 7 days, morphinan 15 or 30 mg/kg i.p. 30 min before): not uniform
effect on MA-induced reductions in striatal DA, DOPAC and HVA ([11]; 24 mg/kg pretreatment): significantly protected
Concentration DOPAC in the striatum ([11]; morphinan 12 (mg/kg) + MA): 79 ± 11 ng/100 mg wet tissue
Concentration HVA in the striatum ([11]; morphinan 12 (mg/kg) + MA): 79 ± 7 ng/100 mg wet tissue
Concentration DA in the striatum ([11]; morphinan 12 (mg/kg) + MA, mean ± S.E.M., 8 animals): 603 ± 65 ng/100 mg wet tissue
Concentration DOPAC in the striatum ([11]; morphinan 24 (mg/kg) + MA): 94 ± 9^b ng/100 mg wet tissue
Concentration HVA in the striatum ([11]; morphinan 24 (mg/kg) + MA): 92 ± 10^b ng/100 mg wet tissue
Concentration DA in the striatum ([11]; morphinan 24 (mg/kg) + MA): 762 ± 81^b ng/100 mg wet tissue
effect on MA-induced reduction in locomotor activity [12]: significantly prevented MA-induced reduction in locomotor activity
conditioned place preference (CPP) [13]: almost no CPP effects
effect on cocaine-induced FRA-IR in the striatum [14]: apparently attenuated
effect on MA-induced hyperthermia (rectal temperature) [15]: attenuated by all morphinans used in this study
affinity for NMDA receptor associated PCP sites [16]: very low affinities
affinity for σ1 receptors [17]: high affinity ligands
effect on LPS-induced decrease in locomotor activity [18]: neither AM nor DF were effective in attenuating locomotor hypoactivity

— patent publication US7691874B2, “Neuroprotective properties of dextrorotatory morphinans” (priority 2004, dated 2010)
